Holding throughout (assay type): cell-based
For assay [1], the target named is T1, human TLR9 (Homo sapiens, UniProt Q9NR96).
T1 construct: host or cells: HEK-Blue cells (HEK293-derived reporter line)
T1 sequence (Q9NR96 26-1032): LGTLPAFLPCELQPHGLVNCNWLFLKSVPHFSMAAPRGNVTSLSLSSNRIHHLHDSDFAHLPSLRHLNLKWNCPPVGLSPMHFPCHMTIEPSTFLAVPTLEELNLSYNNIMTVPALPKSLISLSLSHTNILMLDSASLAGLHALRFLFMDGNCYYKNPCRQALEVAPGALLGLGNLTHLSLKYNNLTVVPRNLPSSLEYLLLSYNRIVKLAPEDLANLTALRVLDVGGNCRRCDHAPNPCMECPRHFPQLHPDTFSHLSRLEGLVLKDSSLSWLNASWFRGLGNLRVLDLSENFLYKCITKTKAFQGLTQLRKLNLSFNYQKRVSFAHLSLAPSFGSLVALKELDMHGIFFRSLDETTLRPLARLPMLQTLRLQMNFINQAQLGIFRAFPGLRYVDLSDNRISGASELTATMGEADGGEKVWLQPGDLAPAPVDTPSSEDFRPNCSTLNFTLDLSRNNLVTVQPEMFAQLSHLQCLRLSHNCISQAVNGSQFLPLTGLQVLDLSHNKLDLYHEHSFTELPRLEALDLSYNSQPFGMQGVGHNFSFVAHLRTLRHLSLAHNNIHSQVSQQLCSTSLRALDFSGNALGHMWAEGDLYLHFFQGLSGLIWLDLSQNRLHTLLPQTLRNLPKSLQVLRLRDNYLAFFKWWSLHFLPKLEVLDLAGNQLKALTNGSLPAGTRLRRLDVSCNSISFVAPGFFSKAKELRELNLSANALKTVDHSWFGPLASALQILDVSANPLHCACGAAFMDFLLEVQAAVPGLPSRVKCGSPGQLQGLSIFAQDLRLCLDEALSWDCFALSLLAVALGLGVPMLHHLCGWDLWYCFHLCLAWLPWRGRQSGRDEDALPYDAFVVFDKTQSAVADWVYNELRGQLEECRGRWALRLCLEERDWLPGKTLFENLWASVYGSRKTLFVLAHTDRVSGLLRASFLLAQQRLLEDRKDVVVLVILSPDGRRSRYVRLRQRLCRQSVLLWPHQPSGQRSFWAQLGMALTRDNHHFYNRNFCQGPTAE
As to the kind of experiment: TLR9 inhibition reporter assay (HEK-Blue cells, SEAP reporter, ODN2006 stimulation). The conditions noted are these: HEK-Blue cells overexpressing human TLR9, SEAP reporter, ODN2006 5 nM. The essentials:
(§1)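 Read-out is SEAP activity in HEK-Blue detection medium after 22 h at 37 °C, converted to percent inhibition against agonist-plus-DMSO and reference-inhibitor controls. Cells saw compound (0.05 nM–50 μM, 30 min, room temperature) before gardiquimod 7.5 μM, R848 15.9 μM or ODN2006 5 nM for TLR7, TLR8 and TLR9, respectively.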
On the technique in general: In a reporter assay the amount or activity of a reporter protein is the signal.

Assay [2] concerns the target T2, human TLR7 (Homo sapiens, UniProt Q9NYK1).
T2 construct: host or cells: HEK-Blue cells (HEK293-derived reporter line)
T2 sequence (Q9NYK1 27-1049): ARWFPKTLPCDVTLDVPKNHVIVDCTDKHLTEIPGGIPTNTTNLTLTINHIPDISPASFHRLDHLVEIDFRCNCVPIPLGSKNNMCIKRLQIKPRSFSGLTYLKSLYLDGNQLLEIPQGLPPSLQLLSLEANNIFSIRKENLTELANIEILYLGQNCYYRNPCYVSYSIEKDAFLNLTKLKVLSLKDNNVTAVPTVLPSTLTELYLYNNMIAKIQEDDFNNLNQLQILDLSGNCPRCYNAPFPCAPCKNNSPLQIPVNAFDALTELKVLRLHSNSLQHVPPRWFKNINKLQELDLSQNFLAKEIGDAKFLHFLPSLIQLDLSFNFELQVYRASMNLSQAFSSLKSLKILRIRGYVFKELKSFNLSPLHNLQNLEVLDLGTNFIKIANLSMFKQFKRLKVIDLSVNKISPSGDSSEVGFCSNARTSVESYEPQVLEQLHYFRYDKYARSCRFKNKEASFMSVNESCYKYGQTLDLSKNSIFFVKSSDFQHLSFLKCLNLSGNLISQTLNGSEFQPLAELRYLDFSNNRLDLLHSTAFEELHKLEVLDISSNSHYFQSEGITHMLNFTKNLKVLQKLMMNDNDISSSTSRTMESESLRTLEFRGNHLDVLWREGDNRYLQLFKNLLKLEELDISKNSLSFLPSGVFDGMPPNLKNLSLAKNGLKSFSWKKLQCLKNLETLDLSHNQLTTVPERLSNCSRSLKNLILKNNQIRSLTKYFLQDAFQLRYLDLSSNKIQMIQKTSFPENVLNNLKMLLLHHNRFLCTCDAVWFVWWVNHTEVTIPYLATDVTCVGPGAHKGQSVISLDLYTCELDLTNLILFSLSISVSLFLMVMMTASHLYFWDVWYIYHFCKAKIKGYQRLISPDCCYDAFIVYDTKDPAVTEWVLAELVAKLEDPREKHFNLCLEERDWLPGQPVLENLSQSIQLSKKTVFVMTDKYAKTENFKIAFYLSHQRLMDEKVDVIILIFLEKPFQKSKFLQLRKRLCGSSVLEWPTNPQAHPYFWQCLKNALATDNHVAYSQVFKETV
The assay is described as follows: TLR7 inhibition reporter assay (HEK-Blue cells, SEAP reporter, gardiquimod stimulation). The conditions noted are these: HEK-Blue cells overexpressing human TLR7, SEAP reporter, gardiquimod 7.5 μM. The method in brief: as §1

The target in assay [3] is T3, human TLR8 (Homo sapiens, UniProt Q9NR97).
T3 construct: host or cells: HEK-Blue cells (HEK293-derived reporter line)
T3 sequence (Q9NR97 27-1041): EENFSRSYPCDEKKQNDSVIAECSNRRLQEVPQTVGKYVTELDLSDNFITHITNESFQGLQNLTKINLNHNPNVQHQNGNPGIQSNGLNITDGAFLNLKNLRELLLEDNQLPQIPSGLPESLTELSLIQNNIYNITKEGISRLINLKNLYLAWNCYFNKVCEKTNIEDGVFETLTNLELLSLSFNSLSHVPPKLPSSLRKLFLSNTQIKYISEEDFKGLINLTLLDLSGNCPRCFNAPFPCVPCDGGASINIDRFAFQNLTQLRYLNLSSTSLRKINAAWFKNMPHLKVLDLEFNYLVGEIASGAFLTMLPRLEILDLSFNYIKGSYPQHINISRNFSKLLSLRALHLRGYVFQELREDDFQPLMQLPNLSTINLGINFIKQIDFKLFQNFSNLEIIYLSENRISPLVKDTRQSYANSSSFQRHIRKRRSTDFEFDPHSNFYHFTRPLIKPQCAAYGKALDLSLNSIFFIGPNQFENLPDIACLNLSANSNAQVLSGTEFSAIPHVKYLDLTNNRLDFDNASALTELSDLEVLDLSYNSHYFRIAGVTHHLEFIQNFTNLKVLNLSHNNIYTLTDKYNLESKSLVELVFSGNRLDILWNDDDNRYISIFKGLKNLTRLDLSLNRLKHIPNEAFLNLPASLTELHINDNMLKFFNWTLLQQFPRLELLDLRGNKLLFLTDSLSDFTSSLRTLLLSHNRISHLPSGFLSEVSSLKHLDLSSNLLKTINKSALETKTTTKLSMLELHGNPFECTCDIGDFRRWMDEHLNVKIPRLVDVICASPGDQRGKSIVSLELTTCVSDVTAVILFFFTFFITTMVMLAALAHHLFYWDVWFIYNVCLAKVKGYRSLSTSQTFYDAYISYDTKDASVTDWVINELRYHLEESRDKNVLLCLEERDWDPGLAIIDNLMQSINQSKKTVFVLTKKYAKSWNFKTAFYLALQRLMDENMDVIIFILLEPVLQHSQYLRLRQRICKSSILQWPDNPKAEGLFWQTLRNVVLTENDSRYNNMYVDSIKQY
As to the kind of experiment: TLR8 inhibition reporter assay (HEK-Blue cells, SEAP reporter, R848 stimulation). The conditions noted are these: HEK-Blue cells overexpressing human TLR8, SEAP reporter, R848 15.9 μM. The essentials: as §1

pIC50: −log10 of the molar value.

Broadly, the pIC50 is the negative decadic logarithm of the IC50, by convention in mol/L. Low readings indicate a large IC50, high ones a small IC50. Consider `Cc1cc(-c2[nH]c3ccc(C4CCN(CC(=O)N(C)C)CC4)cc3c2C(C)C)nc2scnc12` [Example 407, 2-(4-(3-isopropyl-2-(7-methylthiazolo[5,4-b]pyridin-5-yl)-1H-indol-5-yl)piperidin-1-yl)-N,N-dimethylacetamide], for which the pIC50 in assay [1] is 4.30 to 6.00; in assay [2], greater than 7.00; in assay [3], greater than 7.00.

Regarding `CC(C)c1c(-c2ccc3nc(N)cn3c2)[nH]c2ccc(C3CCNCC3)cc12` [Example 116, 6-(3-isopropyl-5-(piperidin-4-yl)-1H-indol-2-yl)imidazo[1,2-a]pyridin-2-amine], the values for the pIC50 in assay [1], in assay [2] and in assay [3] were 4.30 to 6.00, 6.00 to 7.00 and 6.00 to 7.00, respectively.

For the compound `CC(C)c1c(-c2ccn3nncc3c2)[nH]c2ccc(C3CCN(C4COC4)CC3)cc12` [Example 735, 5-(3-isopropyl-5-(1-(oxetan-3-yl)piperidin-4-yl)-1H-indol-2-yl)-[1,2,3]triazolo[1,5-a]pyridine], the results for the pIC50 in assay [1], in assay [2] and in assay [3] were 4.30 to 6.00, greater than 7.00 and 6.00 to 7.00, respectively.

On to `CC(C)c1c(-c2ccnc3[nH]ncc23)[nH]c2ccc(C3CCN(C(=O)CCn4ccnc4)CC3)cc12` [Example 642, 3-(1H-imidazol-1-yl)-1-(4-(3-isopropyl-2-(1H-pyrazolo[3,4-b]pyridin-4-yl)-1H-indol-5-yl)piperidin-1-yl)propan-1-one], for which the pIC50 in assay [1] was 4.30 to 6.00; in assay [2], greater than 7.00; in assay [3], greater than 7.00.

Regarding `Cc1cn2cc(-c3[nH]c4ccc(C5CCN(C(=O)CC(C)(C)O)CC5)cc4c3C(C)C)c(C)cc2n1` [Example 597, 1-(4-(2-(2,7-dimethylimidazo[1,2-a]pyridin-6-yl)-3-isopropyl-1H-indol-5-yl)piperidin-1-yl)-3-hydroxy-3-methylbutan-1-one], the pIC50 in assay [1] was 4.30 to 6.00; in assay [2], 6.00 to 7.00; in assay [3], less than 5.51.

Take `Cc1nc2c(-c3[nH]c4ccc(C5CCN(CC(=O)N(C)C)CC5)cc4c3C(C)C)ccc(C)n2n1` [Example 384, 2-(4-(2-(2,5-dimethyl-[1,2,4]triazolo[1,5-a]pyridin-8-yl)-3-isopropyl-1H-indol-5-yl)piperidin-1-yl)-N,N-dimethylacetamide]: the pIC50 in assay [1] is 4.30 to 6.00; in assay [2], 4.30 to 6.00; in assay [3], 6.00 to 7.00.

As for `CNC(=O)CN1CCC(c2ccc3[nH]c(-c4cnc5ccnn5c4)c(C(C)C)c3c2)CC1` [Example 360, 2-(4-(3-isopropyl-2-(pyrazolo[1,5-a]pyrimidin-6-yl)-1H-indol-5-yl)piperidin-1-yl)-N-methylacetamide], the pIC50 in assay [1] is 4.30 to 6.00; in assay [2], 4.30 to 6.00; in assay [3], less than 5.51.

Take `CNCCN1CCC(c2ccc3[nH]c(-c4ccc5ncccc5c4)c(C)c3c2)CC1` [Example 666, N-methyl-2-(4-(3-methyl-2-(quinolin-6-yl)-1H-indol-5-yl)piperidin-1-yl)ethan-1-amine]: the figures for the pIC50 in assay [1], in assay [2] and in assay [3] were 6.00 to 7.00, 4.30 to 6.00 and less than 5.51, respectively.

On to `CCc1c(-c2ccn3cnnc3c2)[nH]c2ccc(C3CCNCC3)cc12` [Example 204, 7-(3-ethyl-5-(piperidin-4-yl)-1H-indol-2-yl)-[1,2,4]triazolo[4,3-a]pyridine], for which the pIC50 in assay [1], in assay [2] and in assay [3] was 6.00 to 7.00 each time.

Consider `CC(C)c1c(-c2ccc3nccn3c2)[nH]c2ccc(C3CCN(CC(=O)NCC(F)(F)F)CC3)cc12` [Example 401, 2-(4-(2-(imidazo[1,2-a]pyridin-6-yl)-3-isopropyl-1H-indol-5-yl)piperidin-1-yl)-N-(2,2,2-trifluoroethyl)acetamide], for which the values for the pIC50 in assay [1], in assay [2] and in assay [3] were 4.30 to 6.00, 6.00 to 7.00 and 6.00 to 7.00, respectively.

In the case of `CC(C)c1c(-c2cc(N)c3nccn3c2)[nH]c2ccc(C3CCNCC3)cc12` [Example 117, 6-(3-isopropyl-5-(piperidin-4-yl)-1H-indol-2-yl)imidazo[1,2-a]pyridin-8-amine], the results for the pIC50 in assay [1], in assay [2] and in assay [3] were 6.00 to 7.00, greater than 7.00 and greater than 7.00, respectively.

In the case of `Cc1cc(-c2[nH]c3ccc(C4CCN(CCC(F)(F)F)CC4)cc3c2C(C)C)cn2nnnc12` [Example 962, 6-(3-isopropyl-5-(1-(3,3,3-trifluoropropyl)piperidin-4-yl)-1H-indol-2-yl)-8-methyltetrazolo[1,5-a]pyridine], the pIC50 was less than 4.30 in assay [1], greater than 7.00 in assay [2] and greater than 7.00 in assay [3].

As for `CC(C)c1c(-c2ccc3scnc3c2)[nH]c2ccc(C3CCNCC3)cc12` [Example 12, 5-(3-isopropyl-5-(piperidin-4-yl)-1H-indol-2-yl)benzo[d]thiazole], the pIC50 in assay [1] was 6.00 to 7.00; in assay [2], 6.00 to 7.00; in assay [3], 4.30 to 6.00.
